Columns and labels:
[1] = test system: myocardial infarct size; experiment: Rat acute myocardial infarction model (extension of myocardial infarct size); type: in vivo; details: 1 mg/kg, i.v.
Procedure: (1) Inhibitory effects of Compound A on the extension of myocardial infarct size were determined by "Rat acute myocardial infarction model" described in British Journal of Pharmacology, 114, 949-954 (1995).
(2) Inhibitory effects of Compound B [(S)-(-)-7-(2-chlorophenyl)-5-guanidinoimino-4-methyl-5,6,7,8-tetrahydroquinoline] on the extension of myocardial infarct size were determined by "Rat acute myocardial infarction model" described in British Journal of Pharmacology, 114, 949-954 (1995).

[2] = test system: lethal arrhythmia; experiment: Lethal arrhythmia induced by coronary artery occlusion for 5 minutes with reperfusion; type: in vivo, Male Wistar rats
Procedure: Inhibitory effects of Compounds A and B on lethal arrhythmia were determined by the following method:
Male Wistar rats (10-week-old) were anaesthetized with pentobarbital and the chest was opened to expose the heart. Arrhythmia was induced by coronary artery occlusion for 5 minutes with reperfusion of the coronary blood flow. Ventricular arrhythmia observed during occlusion and for 5 minutes after reperfusion was recorded on Mac Lab through polygraph, and the II Lead electro-cardiogram was recorded. Ventricular tachycardia (VT) was counted when premature ventricular complex (PVC) continued more than 5 times. Each of the drugs was dissolved in saline and administered from the femoral vein 5 minutes before coronary artery occlusion.

[3] = premature ventricular complex, drug in saline via femoral vein 5 minutes before coronary artery occlusion
[4] = ventricular tachycardia, drug in saline via femoral vein 5 minutes before coronary artery occlusion

SMILES: Cc1ccnc2c1C(=NNC(=N)N)C[C@@H](c1ccccc1Cl)C2 [Compound B, (S)-(-)-7-(2-chlorophenyl)-5-guanidinoimino-4-methyl-5,6,7,8-tetrahydroquinoline]
- infarct size/area-at-risk ([1]; Post-treatment, 1 minute before reperfusion started): 39±3 %
- infarct size/area-at-risk ([1]; Pre-treatment, 5 minutes before coronary occlusion): 30±5 % t**
- PVC D (duration) [2, 3]: 20.9 ± 4.3 s
- PVC N (number of PVCs) [2, 3]: 4.8±2.8 time
- inhibitory effects on lethal arrhythmia ([2]; summary in words of the arrhythmia table): showed inhibitory effects on lethal arrhythmia
- VT D (duration) [2, 4]: 7.2 ± 3.6 s
- VT F (frequency) [2, 4]: 3.0±0.7 time
